Reference: ChEMBL document CHEMBL1817632, “Synthesis and cytotoxic activity of the heptaphylline and 7-methoxyheptaphylline series” (Eur J Med Chem, 2011)
Activity calls are given as the source filed them. The rule behind the calls is not given here.

What was measured:
[1] = test system: Vero; experiment: Cytotoxicity against african green monkey Vero cells expressing green fluorescent protein after 4 days by fluorescence analysis; assay type: cell-based; conditions: chlorocebus sabaeus, 96 h
[2] = test system: KB; experiment: Cytotoxicity against human KB cells after 3 days by resazurin microplate assay; assay type: functional, cell-based; conditions: 72 h
[3] = test system: NCI-H187; experiment: Cytotoxicity against human NCI-H187 cells after 5 days by resazurin microplate assay; assay type: functional, cell-based; conditions: NCI-H187, 120 h
[4] = test system: NCI-H187; experiment: Ratio of Ellipticine IC50 to compound IC50 for human NCI-H187 cells; assay type: functional
[5] = test system: NCI-H187; experiment: Cytotoxicity against human NCI-H187 cells at >200 uM after 5 days by resazurin microplate assay; assay type: functional, cell-based
[6] = test system: KB; experiment: Cytotoxicity against human KB cells at >200 uM after 3 days by resazurin microplate assay; assay type: functional, cell-based
[7] = test system: Vero; experiment: Cytotoxicity against african green monkey Vero cells expressing green fluorescent protein at > 200 uM after 4 days by fluorescence analysis; assay type: cell-based; conditions: chlorocebus sabaeus, 96 h
[8] = test system: KB; experiment: Ratio of Ellipticine IC50 to compound IC50 for human KB cells; assay type: functional

Structure (SMILES) | IC50 [1] | IC50 [2] | IC50 [3] | Ratio IC50 [4] | Activity [5] | Activity [6] | Activity [7] | Ratio IC50 [8]
COc1cc2[nH]c3c(CC(Br)C(C)(C)O)c(O)c(C=O)cc3c2cc1Br (stereo not given) | 12.5 µM | 36.3 µM | 0.66 µM | 4 | – | – | – | –
COc1ccc2c(c1)[nH]c1c3c(c(C=O)cc12)OC(C)(C)CC3 | – | – | – | – | inactive | inactive | Non-toxic | –
COc1c(C=O)cc2c3ccccc3n(C)c2c1CC=C(C)C | 149 µM | 147 µM | 62.5 µM | – | – | – | – | –
Cc1c2ccncc2c(C)c2c1[nH]c1ccccc12 [ELLIPTECINE] | 3.82 µM | – | 2.77 µM | – | – | – | – | –
COc1ccc2c(c1)[nH]c1c(CC3OC3(C)C)c(O)c(C=O)cc12 (stereo not given) | 75.3 µM | 9.22 µM | 20.1 µM | – | – | – | – | –
CC1(C)Oc2c(C=O)cc3c([nH]c4ccccc43)c2CC1O (stereo not given) | – | 5.99 µM | 6.06 µM | – | – | – | Non-toxic | –
CC(C)(O)C(Br)Cc1c(O)c(C=O)cc2c1[nH]c1ccccc12 (stereo not given) | – | 17.4 µM | 30.2 µM | – | – | – | Non-toxic | –
COc1ccc2c(c1)[nH]c1c3c(c(C=O)cc12)OC(C)(C)C(O)C3 (stereo not given) | – | 120 µM | 3.04 µM | – | – | – | Non-toxic | –
COc1ccc2c3cc(C=O)c(OC)c(CC=C(C)C)c3n(C)c2c1 | 45.9 µM | 69.8 µM | 4.83 µM | – | – | – | – | –
CC(C)=CCc1c(O)c(/C=N\O)cc2c1[nH]c1ccccc12 [HEPTAPHYLLINE OXIME] | 66 µM | 0.17 µM | 0.02 µM | 138 | – | – | – | 10
CC1(C)CCc2c(c(C=O)cc3c2[nH]c2ccccc23)O1 | – | 26.4 µM | 65.2 µM | – | – | – | Non-toxic | –
COc1c(C=O)cc2c([nH]c3ccccc32)c1CC=C(C)C | 170 µM | 12.8 µM | 4.49 µM | – | – | – | – | –
COc1ccc2c(c1)[nH]c1c3c(c(C=O)cc12)OC(C(C)(C)O)C3 (stereo not given) | – | 71.2 µM | 12.9 µM | – | – | – | Non-toxic | –
COc1cc2[nH]c3c4c(c(C=O)cc3c2cc1Br)OC(C)(C)C(Br)C4 (stereo not given) | – | – | – | – | inactive | inactive | Non-toxic | –
CC1(C)Oc2c(C=O)cc3c([nH]c4ccccc43)c2CC1Br (stereo not given) | – | 6 µM | 77.4 µM | – | – | – | Non-toxic | –
COc1ccc2c(c1)[nH]c1c(CC=C(C)C)c(OC)c(C=O)cc12 | 61.1 µM | 11 µM | 19.5 µM | – | – | – | – | –
CC(C)=CCc1c(O)c(C=O)cc2c3ccccc3n(C)c12 | 34.6 µM | 166 µM | 44.2 µM | – | – | – | – | –
COc1ccc2c(c1)[nH]c1c(CC=C(C)C)c(O)c(/C=N\O)cc12 | – | 18.2 µM | 3.67 µM | – | – | – | Non-toxic | –
COc1ccc2c(c1)[nH]c1c(CC=C(C)C)c(O)c(C=O)cc12 | – | – | – | – | – | – | Non-toxic | –
CC1(C)OC1Cc1c(O)c(C=O)cc2c1[nH]c1ccccc12 (stereo not given) | 74.5 µM | 54.8 µM | 5.31 µM | – | – | – | – | –
